# Source: US9643967B2, “Pyrrolo[3,2-c]pyridine derivatives as TLR inhibitors” (TAKEDA PHARMACEUTICAL COMPANY LIMITED, priority 2013, dated 2017)
# Molecular target: T1, hTLR9 (Homo sapiens, UniProt Q9NR96)
# T1 construct: expressed in transfected cells; host or cells: HEK-Blue-hTLR9 cells (HEK293)
# T1 sequence (Q9NR96 26-1032): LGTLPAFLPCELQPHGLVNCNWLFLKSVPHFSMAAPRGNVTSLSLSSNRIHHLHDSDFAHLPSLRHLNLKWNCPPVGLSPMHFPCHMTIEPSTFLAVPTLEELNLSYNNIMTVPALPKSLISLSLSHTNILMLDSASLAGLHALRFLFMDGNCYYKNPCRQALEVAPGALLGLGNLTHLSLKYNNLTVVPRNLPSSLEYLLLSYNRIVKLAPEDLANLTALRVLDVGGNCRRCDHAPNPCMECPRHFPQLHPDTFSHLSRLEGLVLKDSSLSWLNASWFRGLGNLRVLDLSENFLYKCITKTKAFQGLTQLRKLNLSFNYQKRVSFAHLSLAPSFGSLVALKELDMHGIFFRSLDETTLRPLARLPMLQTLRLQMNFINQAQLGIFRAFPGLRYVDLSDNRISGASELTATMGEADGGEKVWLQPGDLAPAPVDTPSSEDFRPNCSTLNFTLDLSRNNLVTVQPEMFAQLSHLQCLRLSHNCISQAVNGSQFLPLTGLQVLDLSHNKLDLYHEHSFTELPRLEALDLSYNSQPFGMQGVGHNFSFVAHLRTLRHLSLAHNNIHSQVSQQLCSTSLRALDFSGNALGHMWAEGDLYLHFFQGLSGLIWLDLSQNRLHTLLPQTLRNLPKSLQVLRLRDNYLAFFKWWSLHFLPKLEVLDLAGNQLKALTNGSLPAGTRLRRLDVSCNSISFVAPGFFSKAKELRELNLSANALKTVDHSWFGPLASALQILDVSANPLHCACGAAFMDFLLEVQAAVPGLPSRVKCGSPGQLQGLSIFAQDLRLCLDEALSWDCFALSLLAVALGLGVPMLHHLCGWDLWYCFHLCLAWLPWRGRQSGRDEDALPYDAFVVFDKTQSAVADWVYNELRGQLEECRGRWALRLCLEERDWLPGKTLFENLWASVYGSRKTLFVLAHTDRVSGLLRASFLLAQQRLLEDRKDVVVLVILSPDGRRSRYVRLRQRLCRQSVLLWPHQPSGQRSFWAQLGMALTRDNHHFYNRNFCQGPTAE
# Assay: hTLR9 antagonism (SEAP inhibition assay) in HEK-Blue-hTLR9 (HEK293) cells, ODN-2006 stimulated
# Type: cell-based
# Details: 1 μM; SEAP, HEK-Blue-hTLR9 cells
row,hTLR9 inhibitory activity (% at 1 μM),Structure (SMILES)
1,95.8%,"Cc1cc2c(cc(CCN3CCOCC3)n2C)c(C2CCC(N3CCN(C(C)C)CC3)CC2)n1 (centres unmarked) [Example B27, 4-[2-[4-[4-(4-isopropylpiperazin-1-yl)cyclohexyl]-1,6-dimethyl-pyrrolo[3,2-c]pyridin-2-yl]ethyl]morpholine]"

# Same assay, conditions: HEK-Blue hTLR9, 1 μM; SEAP, HEK-Blue-hTLR9 cells; read-out: hTLR9 inhibitory activity (% at 1 μM)
row,inhibition at 1 µM,Structure (SMILES)
1,99.2%,"CC(C)N1CCN(c2ccc(-c3nccc4[nH]c(CCCN5CCOCC5)cc34)cc2)CC1 [Example C1, 4-[3-[4-[4-(4-isopropylpiperazin-1-yl)phenyl]-1H-pyrrolo[3,2-c]pyridin-2-yl]propyl]morpholine]"
2,100%,"CN1CCN(c2ccc(-c3nccc4[nH]c(CCCN5CCOCC5)cc34)cc2)CC1 [Example C2, 4-[3-[4-[4-(4-methylpiperazin-1-yl)phenyl]-1H-pyrrolo[3,2-c]pyridin-2-yl]propyl]morpholine]"
3,94.8%,"Cc1cc2[nH]c(CCCN3CCOCC3)cc2c(-c2ccc(N3CCN(C(C)C)CC3)cc2)n1 [Example C3, 4-[3-[4-[4-(4-isopropylpiperazin-1-yl)phenyl]-6-methyl-1H-pyrrolo[3,2-c]pyridin-2-yl]propyl]morpholine]"
4,94.7%,"Cc1cc2[nH]c(CCCN3CCCCC3)cc2c(-c2ccc(N3CCN(C(C)C)CC3)cc2)n1 [Example C5, 4-[4-(4-isopropylpiperazin-1-yl)phenyl]-6-methyl-2-[3-(1-piperidyl)propyl]-1H-pyrrolo[3,2-c]pyridine]"
5,99.1%,"Cc1cc2c(cc(CCCN3CCOCC3)n2C)c(-c2ccc(N3CCN(C(C)C)CC3)cc2)n1 [Example C6, 4-[3-[4-[4-(4-isopropylpiperazin-1-yl)phenyl]-1,6-dimethyl-pyrrolo[3,2-c]pyridin-2-yl]propyl]morpholine]"

# Continued, compound first:
row,Structure (SMILES),inhibition at 1 µM
1,"Cc1nc(-c2ccc(N3CCN(C(C)C)CC3)cc2)c2cc(CCN3CCOCC3)[nH]c2c1C [Example B6, 4-[2-[4-[4-(4-isopropylpiperazin-1-yl)phenyl]-6,7-dimethyl-1H-pyrrolo[3,2-c]pyridin-2-yl]ethyl]morpholine]",79.7%
2,"Cc1cc2c(cc(CCN3CCOCC3)n2C)c(-c2ccc(N3CCN(C(C)C)CC3)cc2)n1 [Example B11, 4-[2-[4-[4-(4-isopropylpiperazin-1-yl)phenyl]-1,6-dimethyl-pyrrolo[3,2-c]pyridin-2-yl]ethyl]morpholine]",80%
3,"Cc1cc2c(cc(CCN3CCOCC3)n2C)c(-c2ccc(N3CCN(C(C)C)CC3)c(F)c2)n1 [Example B14, 4-[2-[4-[3-fluoro-4-(4-isopropylpiperazin-1-yl)phenyl]-1,6-dimethyl-pyrrolo[3,2-c]pyridin-2-yl]ethyl]morpholine]",88.7%
4,"Cc1cc2c(cc(CCN3CCOCC3)n2C)c(-c2ccc(N3CCN(C(C)C)CC3)cc2C)n1 [Example B15, 4-[2-[4-[4-(4-isopropylpiperazin-1-yl)-2-methyl-phenyl]-1,6-dimethyl-pyrrolo[3,2-c]pyridin-2-yl]ethyl]morpholine]",93.3%
5,"Cc1cc2c(cc(CCN3CCOCC3)n2C)c(-c2ccc(N3CCN(C(C)C)CC3)c(C)c2)n1 [Example B16, 4-[2-[4-[4-(4-isopropylpiperazin-1-yl)-3-methyl-phenyl]-1,6-dimethyl-pyrrolo[3,2-c]pyridin-2-yl]ethyl]morpholine]",91%
6,"Cc1cc2c(cc(CCN3CCOCC3)n2C)c(-c2ccc(N3CCN(C(C)C)CC3)cc2C(F)(F)F)n1 [Example B17, 4-[2-[4-[4-(4-isopropylpiperazin-1-yl)-2-(trifluoromethyl)phenyl]-1,6-dimethyl-pyrrolo[3,2-c]pyridin-2-yl]ethyl]morpholine]",91.5%
7,"Cc1cc2c(cc(CCN3CCOCC3)n2C)c(-c2ccc(N3CCN(C(C)C)CC3)c(C(F)(F)F)c2)n1 [Example B18, 4-[2-[4-[4-(4-isopropylpiperazin-1-yl)-3-(trifluoromethyl)phenyl]-1,6-dimethyl-pyrrolo[3,2-c]pyridin-2-yl]ethyl]morpholine]",99.3%
8,"Cc1cc2c(cc(CCN3CCOCC3)n2C)c(-c2ccc(N3CCN(C(C)C)CC3)cc2F)n1 [Example B19, 4-[2-[4-[2-fluoro-4-(4-isopropylpiperazin-1-yl)phenyl]-1,6-dimethyl-pyrrolo[3,2-c]pyridin-2-yl]ethyl]morpholine]",100%
9,"COc1cc(N2CCN(C(C)C)CC2)ccc1-c1nc(C)cc2c1cc(CCN1CCOCC1)n2C [Example B20, 4-[2-[4-[4-(4-isopropylpiperazin-1-yl)-2-methoxy-phenyl]-1,6-dimethyl-pyrrolo[3,2-c]pyridin-2-yl]ethyl]morpholine]",100%
10,"Cc1cc2c(cc(CCN3CCOCC3)n2C)c(-c2cccc(N3CCN(C(C)C)CC3)c2)n1 [Example B21, 4-[2-[4-[3-(4-isopropylpiperazin-1-yl)phenyl]-1,6-dimethyl-pyrrolo[3,2-c]pyridin-2-yl]ethyl]morpholine]",100%
11,"COc1cc(-c2nc(C)cc3c2cc(CCN2CCOCC2)n3C)ccc1N1CCN(C(C)C)CC1 [Example B22, 4-[2-[4-[4-(4-isopropylpiperazin-1-yl)-3-methoxy-phenyl]-1,6-dimethyl-pyrrolo[3,2-c]pyridin-2-yl]ethyl]morpholine]",99.7%
12,"Cc1cc2c(cc(CCN3CCOCC3)n2C)c(-c2ccc(N3CCN(C(C)C)[C@@H](C)C3)cc2)n1 [Example B23, 4-[2-[4-[4-[(3S)-4-isopropyl-3-methyl-piperazin-1-yl]phenyl]-1,6-dimethyl-pyrrolo[3,2-c]pyridin-2-yl]ethyl]morpholine]",99.2%
13,"Cc1cc2c(cc(CCN3CCOCC3)n2C)c(C2CCC(N3CCN(C(C)C)CC3)CC2)n1 (centres unmarked) [Example B26, 4-[2-[4-[4-(4-isopropylpiperazin-1-yl)cyclohexyl]-1,6-dimethyl-pyrrolo[3,2-c]pyridin-2-yl]ethyl]morpholine]",89.9%
14,"Cc1cc2c(cc(CCN3CCOCC3)n2C)c(-c2ccc(C3CCN(C(C)C)CC3)cc2)n1 [Example B31, 4-[2-[4-[4-(1-isopropyl-4-piperidyl)phenyl]-1,6-dimethyl-pyrrolo[3,2-c]pyridin-2-yl]ethyl]morpholine]",99.4%

# System: lupus-prone MRL lpr/lpr mice
# Assay: Mouse lupus disease model, anti-dsDNA IgG titers (ELISA)
# Type: in vivo
# Details: female MRL/lpr mice; 10 mg/kg once daily oral; 9 weeks; 10 mg/kg
# Protocol: Mouse Lupus Disease Model
# Examples B6 and B11 were tested in well studied mouse model of lupus, lupus-prone MRL lpr/lpr mice that develop disease similar to human SLE [J Exp Med., 1978, 148 (5), 1198-1215]. These mice develop spontaneous systemic autoimmunity with both molecular (IFN signature) and clinical (autoantibody production and glomerulonephritis) features similar to human SLE. Anti-dsDNA antibodies are correlated with human SLE and the reduction in anti-dsDNA antibodies is believed to be of potential clinical benefit. Positive TLR7 and/or TLR9 target validation results have been reported for this disease model.
# Mouse Lupus Disease Model Strain:
# Female MRL/lpr mice were purchased from Jackson Laboratories (USA) which manifest spontaneous lupus disease. Female MRL/lpr mice were treated for 9 weeks by oral route once a day with TLR-7/9 antagonists [Examples B6 and B11] at 3, 10 and 30 mg/kg doses. Prednisolone (2 mg/kg, P.O., QD) was used as a positive control during the studies. At the end of treatment period, animals were sacrificed and blood samples were collected to estimate anti-dsDNA IgG titers using anti-dsDNA IgG ELISA kit, Alpha Diagnostics, USA.
row,Structure (SMILES),anti-dsDNA IgG after 9 weeks of treatment
1,"Cc1nc(-c2ccc(N3CCN(C(C)C)CC3)cc2)c2cc(CCN3CCOCC3)[nH]c2c1C [Example B6, 4-[2-[4-[4-(4-isopropylpiperazin-1-yl)phenyl]-6,7-dimethyl-1H-pyrrolo[3,2-c]pyridin-2-yl]ethyl]morpholine]",Significant reduction

# Same assay, conditions: female MRL/lpr mice; oral QD; 3, 10 and 30 mg/kg; 6 weeks
row,Structure (SMILES),mean anti-dsDNA IgG titers after 6 weeks of treatment
1,"Cc1nc(-c2ccc(N3CCN(C(C)C)CC3)cc2)c2cc(CCN3CCOCC3)[nH]c2c1C [Example B6, 4-[2-[4-[4-(4-isopropylpiperazin-1-yl)phenyl]-6,7-dimethyl-1H-pyrrolo[3,2-c]pyridin-2-yl]ethyl]morpholine]",trend towards dose dependent reduction
2,"Cc1cc2c(cc(CCN3CCOCC3)n2C)c(-c2ccc(N3CCN(C(C)C)CC3)cc2)n1 [Example B11, 4-[2-[4-[4-(4-isopropylpiperazin-1-yl)phenyl]-1,6-dimethyl-pyrrolo[3,2-c]pyridin-2-yl]ethyl]morpholine]",dose dependent reduction
